Common to all, as to type: biochemical
The target in one assay is hCDK1/B (Homo sapiens, UniProt P06493). Nature of the assay: hCDK1/B. The conditions noted are these: Table E; read-out: hCDK1/B/IC50 [umol l − 1].
Assay [1] addresses CDK2/Cyclin-A kinase complex (Homo sapiens, UniProt P24941). Nature of the assay: CDK2 IMAP fluorescence polarization assay. The conditions noted are these: Table E; read-out: CDK2cyA IMAP/IC50 [umol l − 1]. The source says: In order to test the CDK2 activity of the compounds of the invention, the CDK2 assay is a fluorescence polarization assay, where the enzyme is a purified active CDK2/Cyclin-A kinase complex and the substrate is a synthesized peptide derived from Histone H1. This assay utilizes the IMAP technology from Molecular Devices. The active CDK2/Cyclin-A complex phosphorylates the peptide substrate, which is conjugated with the TAMRA tag. The phosphorylated site is then recognized by a metal containing molecule that interacts with the TAMRA tag to induce a high fluorescence polarization. The compounds that inhibit the CDK2 kinase activity would inhibit the fluorescence output of the assay.

The target in another assay is CDK4 (Homo sapiens, UniProt P11802). Nature of the assay: CDK4 HTRF. The conditions noted are these: Table E; read-out: CDK4 HTRF/IC50 [umol l − 1]. (In general: TR-FRET usually uses a lanthanide donor and a delayed reading to cut background.)
CDK4, sequence (P11802 whole entry): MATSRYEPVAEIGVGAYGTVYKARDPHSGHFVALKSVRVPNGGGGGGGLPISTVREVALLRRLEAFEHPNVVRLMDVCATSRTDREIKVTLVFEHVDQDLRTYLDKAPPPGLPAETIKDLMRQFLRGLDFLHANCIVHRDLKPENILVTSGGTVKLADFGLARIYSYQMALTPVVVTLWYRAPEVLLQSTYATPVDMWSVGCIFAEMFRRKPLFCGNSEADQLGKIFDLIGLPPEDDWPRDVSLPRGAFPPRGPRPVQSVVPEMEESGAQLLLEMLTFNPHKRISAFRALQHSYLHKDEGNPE
CDK4, sequence (P24385 whole entry partner): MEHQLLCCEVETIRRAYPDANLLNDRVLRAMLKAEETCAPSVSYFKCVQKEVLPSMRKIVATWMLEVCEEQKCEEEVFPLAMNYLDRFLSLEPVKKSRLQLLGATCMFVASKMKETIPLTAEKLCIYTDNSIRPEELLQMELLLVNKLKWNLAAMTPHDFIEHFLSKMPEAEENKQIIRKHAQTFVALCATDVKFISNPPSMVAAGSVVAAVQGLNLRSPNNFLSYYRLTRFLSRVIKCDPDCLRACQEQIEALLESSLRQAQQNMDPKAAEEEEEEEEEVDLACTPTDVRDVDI

The structures appear in SMILES notation. Bounds are passed on as bounds.

hCDK1/B, sequence (P06493 whole entry): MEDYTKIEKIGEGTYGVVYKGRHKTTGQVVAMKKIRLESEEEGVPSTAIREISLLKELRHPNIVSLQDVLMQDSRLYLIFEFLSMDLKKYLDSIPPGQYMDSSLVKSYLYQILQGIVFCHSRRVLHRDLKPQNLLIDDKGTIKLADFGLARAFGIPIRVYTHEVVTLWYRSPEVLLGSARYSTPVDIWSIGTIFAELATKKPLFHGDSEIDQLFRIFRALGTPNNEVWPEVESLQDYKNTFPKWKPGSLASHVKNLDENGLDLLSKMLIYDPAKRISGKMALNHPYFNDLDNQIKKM
hCDK1/B, sequence (P14635 whole entry partner): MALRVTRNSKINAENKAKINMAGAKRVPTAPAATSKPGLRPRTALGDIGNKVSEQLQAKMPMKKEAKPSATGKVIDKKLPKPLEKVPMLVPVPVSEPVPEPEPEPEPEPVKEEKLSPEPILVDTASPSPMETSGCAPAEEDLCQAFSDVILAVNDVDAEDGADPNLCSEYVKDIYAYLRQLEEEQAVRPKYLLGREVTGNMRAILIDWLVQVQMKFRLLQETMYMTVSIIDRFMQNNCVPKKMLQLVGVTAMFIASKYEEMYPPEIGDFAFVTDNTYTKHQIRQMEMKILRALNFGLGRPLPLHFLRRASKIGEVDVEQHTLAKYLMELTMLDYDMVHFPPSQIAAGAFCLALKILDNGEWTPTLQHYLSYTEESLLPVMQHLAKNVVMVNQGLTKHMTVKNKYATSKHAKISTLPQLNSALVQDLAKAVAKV

In the case of `Cc1cn(C2CCCC2)c2nc(Nc3ccc4[nH]ccc4c3)ncc12` [Example 282], the IC50 at hCDK1/B is > 15 µM; in assay [1] it was > 15 µM; at CDK4, > 10 µM.

The values are drawn from patent US8324225B2, “Pyrrolopyrimidine compounds and their uses” (Novartis AG, priority 2006, dated 2012).
